Data taken from the supplement of paper PMC10307832.

Key:
Experiment in all cases: relative viability (nuclei count vs DMSO), 5 days (fraction); higher = more cells survive
[1] = compound: COc1cccc2c1C(=O)c1c(O)c3c(c(O)c1C2=O)C[C@@](O)(C(=O)CO)C[C@@H]3O[C@H]1C[C@H](N)[C@H](O)[C@H](C)O1 [Doxorubicin] + Nc1nc2[nH]cc(CCc3ccc(C(=O)N[C@@H](CCC(=O)O)C(=O)O)cc3)c2c(=O)[nH]1 [Pemetrexed] (partner 0.2 µM)
Method in brief: (§1)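 Lung cancer cell lines in 1536-well plates were dosed by pin tool the day after seeding, either with one drug alone or with a fixed anchor-drug dose plus five library-drug doses (not always all listed) in √10 steps. After 5 days, cells were fixed and their nuclei stained in one step (final 0.05% Triton X-100, 1% formaldehyde, 1 ug/ml Hoechst), then counted on 4× images. Relative viability is the nuclei count in treated wells divided by that in vehicle wells. Values are medians of duplicate plates.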

[2] = compound: COc1cccc2c1C(=O)c1c(O)c3c(c(O)c1C2=O)C[C@@](O)(C(=O)CO)C[C@@H]3O[C@H]1C[C@H](N)[C@H](O)[C@H](C)O1 [Doxorubicin] + Cc1nc(NC(=O)N2CCC[C@H]2C(N)=O)sc1-c1ccnc(C(C)(C)C(F)(F)F)c1 [Alpelisib] (partner 2 µM)
Method in brief: as §1

[3] = compound: COC1=C(C=C(C=C1)C2=CC3=NC=CN3C(=N2)NC4=C(C=CC=N4)C(=O)N)OC [BAY61-3606] + N=C(N)NC(=N)NCCc1ccccc1 [Phenformin] (partner 250 µM)
Method in brief: as §1

[4] = compound: COC1=C(C=C(C=C1)C2=CC3=NC=CN3C(=N2)NC4=C(C=CC=N4)C(=O)N)OC [BAY61-3606] + CC1(C)CCC(c2ccc(Cl)cc2)=C(CN2CCN(c3ccc(C(=O)NS(=O)(=O)c4ccc(N[C@H](CCN5CCOCC5)CSc5ccccc5)c(S(=O)(=O)C(F)(F)F)c4)cc3)CC2)C1 [Navitoclax] (partner 0.5 µM)
Method in brief: as §1

For UMC-11, which relative viability ([1]; first compound 0.001 µM) is on record?
The relative viability was 0.831.

What about the relative viability ([1]; first compound 0.003162 µM) of the same cell line?
The relative viability was 0.901.

And the relative viability ([1]; first compound 0.01 µM)?
The relative viability was 0.823.

What about the relative viability ([1]; first compound 0.03162 µM) of the same cell line?
Its relative viability is 0.645.

And the relative viability ([1]; first compound 0.1 µM)?
Its relative viability is 0.636.

And the relative viability ([2]; first compound 0.001 µM)?
The relative viability was 1.11.

And the relative viability ([2]; first compound 0.003162 µM)?
Its relative viability is 1.17.

What about the relative viability ([2]; first compound 0.01 µM) of the same cell line?
Its relative viability is 0.958.

And the relative viability ([2]; first compound 0.03162 µM)?
The relative viability was 0.693.

And the relative viability ([2]; first compound 0.1 µM)?
The relative viability was 0.968.

And the relative viability ([3]; first compound 0.02 µM)?
Its relative viability is 0.333.

What about the relative viability ([3]; first compound 0.06325 µM) of the same cell line?
The relative viability was 0.339.

And the relative viability ([3]; first compound 0.2 µM)?
Its relative viability is 0.334.

What about the relative viability ([3]; first compound 0.6325 µM) of the same cell line?
The relative viability was 0.332.

And the relative viability ([3]; first compound 2 µM)?
The relative viability was 0.298.

What about the relative viability ([4]; first compound 0.02 µM) of the same cell line?
The relative viability was 0.339.

What about the relative viability ([4]; first compound 0.06325 µM) of the same cell line?
Its relative viability is 0.324.

And the relative viability ([4]; first compound 0.2 µM)?
Its relative viability is 0.309.

What about the relative viability ([4]; first compound 0.6325 µM) of the same cell line?
Its relative viability is 0.344.

And the relative viability ([4]; first compound 2 µM)?
Its relative viability is 0.164.
